PMC9038752, “Molecular mechanisms of bifunctional vitamin D receptor agonist-histone deacetylase inhibitor hybrid molecules in triple-negative breast cancer” (Scientific Reports, 2022)
Values after ≈ are worked out from the molar mass of the structure shown. Values belong to the molecule of their own block, whether it stands above or below them.

Tests used:
[1] = tested on: 4T1 mouse model of triple negative breast cancer; set-up: method as in PMID 28847749; conditions: aggressive 4T1 mouse model of TNBC; cited from earlier work
purified HDAC6 = biological target: T1, purified HDAC6 (Homo sapiens, UniProt Q9UBN7); assay: Fluorogenic HDAC inhibition assay, HDAC6; type: biochemical; conditions: purified HDAC6, fluorometric substrate
T1 construct: purchased Cayman Chemical
T1 sequence (Q9UBN7 1-1215): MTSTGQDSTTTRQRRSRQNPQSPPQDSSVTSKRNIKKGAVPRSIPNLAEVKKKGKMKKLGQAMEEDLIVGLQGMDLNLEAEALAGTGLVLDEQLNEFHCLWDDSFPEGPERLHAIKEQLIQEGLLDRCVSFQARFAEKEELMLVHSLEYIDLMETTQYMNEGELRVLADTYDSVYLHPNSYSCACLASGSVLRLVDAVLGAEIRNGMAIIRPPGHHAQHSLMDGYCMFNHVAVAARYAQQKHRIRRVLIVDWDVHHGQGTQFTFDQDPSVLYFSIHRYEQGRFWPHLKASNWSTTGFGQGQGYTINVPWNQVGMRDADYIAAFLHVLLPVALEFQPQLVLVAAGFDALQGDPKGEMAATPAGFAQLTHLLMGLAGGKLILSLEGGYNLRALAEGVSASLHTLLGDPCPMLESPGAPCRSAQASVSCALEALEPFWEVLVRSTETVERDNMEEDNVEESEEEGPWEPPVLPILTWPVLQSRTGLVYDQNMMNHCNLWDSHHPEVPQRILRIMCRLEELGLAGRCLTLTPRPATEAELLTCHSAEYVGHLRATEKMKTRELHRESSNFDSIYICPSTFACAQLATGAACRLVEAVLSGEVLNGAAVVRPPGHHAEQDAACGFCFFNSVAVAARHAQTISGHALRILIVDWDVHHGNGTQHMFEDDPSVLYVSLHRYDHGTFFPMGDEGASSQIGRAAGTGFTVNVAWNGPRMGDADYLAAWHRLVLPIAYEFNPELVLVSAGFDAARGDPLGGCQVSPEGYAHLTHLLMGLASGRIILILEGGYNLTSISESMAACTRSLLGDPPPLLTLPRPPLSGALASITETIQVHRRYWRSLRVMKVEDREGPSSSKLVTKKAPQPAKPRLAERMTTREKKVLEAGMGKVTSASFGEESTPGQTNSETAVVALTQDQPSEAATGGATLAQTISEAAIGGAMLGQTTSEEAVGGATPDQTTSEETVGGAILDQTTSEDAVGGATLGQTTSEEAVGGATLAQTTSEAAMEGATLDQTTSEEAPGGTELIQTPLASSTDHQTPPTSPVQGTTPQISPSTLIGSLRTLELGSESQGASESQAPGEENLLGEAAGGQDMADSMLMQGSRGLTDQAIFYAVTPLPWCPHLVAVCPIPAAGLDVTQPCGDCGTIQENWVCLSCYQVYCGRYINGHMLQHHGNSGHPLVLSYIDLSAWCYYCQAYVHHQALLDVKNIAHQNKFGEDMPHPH
Description: (§1) The hybrids were assessed to determine their HDACi and VDR agonist activity as well as their antiproliferative properties relative to DK-406. HDACi activity was assessed in vitro using an acetylated lysine substrate that releases a fluorescent reporter upon HDACi deacetylation and subsequent trypsin digestion. Increasing sidechain length of pyrimidine hybrids enhanced the potency of HDAC6 inhibition, with several compounds inhibiting HDAC6 with a sub-micromolar IC50, similar to that of DK-406 (Fig. 4a). […] Next, we analyzed the effects of compounds on levels of H3K9 and H3K27 acetylation in 4TO7 cells, which are controlled by class I HDACs[29],[30]. […] We also tested the capacity of analogues to induce tubulin acetylation, controlled by class II enzyme HDAC6[32], in 4TO7 cells. Based on their relative efficacy in cytotoxicity assays (see below, Fig. 5c,d), we used 10^–5 M DK-406 and 10^–6 M AM-193 for these studies.
(§2) Figure 4 (a) Results of in vitro assays for inhibition of purified HDAC2 and HDAC6 by DK-406 and heterocyclic hybrids as measured by inhibition of deacetylation of a fluorometric substrate (see Methods for details). (b–d) Left: Western blotting analysis of histone 3 lysine 9 (H3K9; b), H3K27 (c), or acetylated tubulin (d), levels in 4TO7 cells treated with ligands for 6 h. Representative western-blots are shown from at least 3 biological replicates. Right: Graphs representing the average of the replicates, bars are mean ± SD. Each condition was compared to control. *: p ≤ 0.05, **: p ≤ 0.01, ***: p ≤ 0.001, ****: p ≤ 0.0001, ns: not significant. TEXT PRINTED IN THE PICTURE: (a) DK-406: HDAC6 IC50 (μM): 0.6; HDAC2 IC50 (μM): 0.5 | (a) AM-155: HDAC6 IC50 (μM): 2.8; HDAC2 IC50 (μM): 1.7 | (a) AM-171: HDAC6 IC50 (μM): 0.5; HDAC2 IC50 (μM): 9.6 | (a) AM-172: HDAC6 IC50 (μM): 0.3; HDAC2 IC50 (μM): 7.7 | (a) AM-191: HDAC6 IC50 (μM): 1.9; HDAC2 IC50 (μM): 8.1 | (a) AM-192: HDAC6 IC50 (μM): 0.5; HDAC2 IC50 (μM): 6.5 | (a) AM-193: HDAC6 IC50 (μM): 0.3; HDAC2 IC50 (μM): 7.2
(§3) Purified HDAC2 and HDAC6 were purchased from Cayman Chemical. Boc-Lys(Ac)-7-amino-4-methylcoumarin (BocLys(Ac)-AMC) was used as substrate for the HDAC assays. Substrate solution was prepared as follow: Boc(Lys-Ac)-AMC was dissolved in DMSO and diluted with HDAC buffer (15 mM tris–HCl [pH 8.1], 250 μM EDTA, 250 mM NaCl, 10% glycerol) to give 1 mM solutions containing 1.7% DMSO. Trypsin was used to stop the reaction, releasing free AMC. The trypsin solution was prepared as follow: trypsin was dissolved in HDAC buffer to give a concentration of 10 mg/mL. Release of AMC was monitored by measuring the fluorescence at 460 nm (lex = 390 nm) with a microplate reader (SpectraMax Gemini from Molecular Devices) at 37 °C. The AMC signals were recorded against a blank with buffer, substrate and trypsin but without the enzyme. All experiments were carried out at least in triplicate.
(§4) For HDAC inhibition assays, inhibitor diluted in 50 μL of HDAC buffer was mixed with 10 μL of diluted enzyme solution in HDAC buffer at room temperature. The HDAC reaction was started by adding 40 μL of substrate solution in HDAC buffer followed by 60 min of incubation with stirring at 37 °C. The reaction was stopped by adding 100 μL of trypsin solution. After a 30 min incubation with stirring at 37 °C, the release of AMC was monitored by measuring the fluorescence.

purified HDAC2 = biological target: T2, purified HDAC2 (Homo sapiens, UniProt Q92769); assay: Fluorogenic HDAC inhibition assay, HDAC2; type: biochemical; conditions: purified HDAC2, fluorometric substrate
T2 construct: purchased Cayman Chemical
Description: as §1, §2, §3, §4

4TO7 cells = assay: RNAseq gene expression profiling in 4TO7 cells; type: cell-based, mouse; conditions: relative to control
Description: Cells were treated for 6 h to focus more on genes directly regulated by the VDR, or for 24 or 48 h to gain insight into longer-term effects on gene expression.
McGill Genome Centre performed a quality control before sequencing in paired-end at 50 M reads by Illumina NovaSeq 6000 S4 PE100. Sets of genes regulated in the different conditions were sent to us and downstream analysis were performed.
Table S1 and Table S2 : See Excel files with RNAseq results and analysis
48 hours prior to RNA extraction. Samples were prepared in triplicate and run on Illumina NovaSeq 6000 S4
PE100. For assessing differential gene expression for RNAseq data, the LIMMA package inR was used.
RNAseq results and statistical analyses from D, S, S+D, DK-406, and AM-193 conditions measured relative to
AM-193 for 6 or 24 hours prior to RNA extraction . Samples were prepared in triplicate and run on Illumina
NovaSeq 6000 S4 PE100. For assessing differential gene expression for RNAseq data, the LIMMA package in R was […]

[2] = Aqueous solubility after sonication; type: physicochemical; conditions: water; after sonication for 30 min
Source text: The synthesis of the B-ring series mirrored that of the A-ring series producing B-ring hybrids AM-191 (n = 1, 27a), AM-192 (n = 3, 27b), and AM-193 (n = 5, 27c) in 9 steps (Fig. 3).

[3] = tested on: 60 human cell line panel of the National Cancer Institute; set-up: method as in PMID 26048026; conditions: cell lines from a broad range of tumors, including TNBCs; cited from earlier work
[4] = 6 h, RNAseq Supplemental table 1
[5] = 6 h, RNAseq Supplemental table 2, 1 µM AM-193, 10 µM DK-406, 100 nM 1,25D and SAHA
[6] = 24 h, RNAseq Supplemental table 2, 1 µM AM-193, 10 µM DK-406, 100 nM 1,25D and SAHA
[7] = 48 h, RNAseq Supplemental table 1

T2 sequence (Q92769 whole entry): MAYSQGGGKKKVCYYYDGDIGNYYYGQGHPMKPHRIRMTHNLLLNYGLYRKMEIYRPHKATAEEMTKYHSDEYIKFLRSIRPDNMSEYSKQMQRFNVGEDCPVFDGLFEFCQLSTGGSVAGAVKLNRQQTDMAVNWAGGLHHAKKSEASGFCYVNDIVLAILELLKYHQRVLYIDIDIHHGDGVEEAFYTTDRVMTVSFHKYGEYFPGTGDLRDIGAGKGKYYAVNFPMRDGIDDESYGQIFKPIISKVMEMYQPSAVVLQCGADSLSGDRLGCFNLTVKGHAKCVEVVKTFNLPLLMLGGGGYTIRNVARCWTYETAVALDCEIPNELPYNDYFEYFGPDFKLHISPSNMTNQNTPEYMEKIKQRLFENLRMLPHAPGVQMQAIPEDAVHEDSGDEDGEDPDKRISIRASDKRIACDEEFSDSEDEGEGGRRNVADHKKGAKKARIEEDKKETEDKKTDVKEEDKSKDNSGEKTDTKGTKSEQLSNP

SMILES: O=C(CCCCCCC(=O)Nc1ccccc1)NO [SAHA, Suberoylanilide hydroxamic acid, reference compound]
tumor growth and metastasis [1]: inactive alone or in combination

IC50 (purified HDAC6): 1900 nM
IC50 (purified HDAC2): 8.1 µM
SMILES: CCC(CC)(c1ccc(OCC(=O)NO)cc1)c1ccc(OCC(O)C(C)(C)C)c(C)n1 (stereo not shown) [AM-191]

SMILES: C=C1/C(=C\C=C2/CCC[C@]3(C)[C@@H]([C@H](C)CCCC(C)(C)O)CC[C@@H]23)C[C@@H](O)C[C@@H]1O [1,25D, 1α,25-Dihydroxyvitamin D3, reference compound]
tumor growth and metastasis [1]: inactive alone or in combination
Aaas 6h Log Fold (4TO7 cells; [4]): -1.012
Aacs 6h Log Fold (4TO7 cells; [4]): 1.070
Aaed1 6h Log Fold (4TO7 cells; [4]): -1.076
Aagab 6h Log Fold (4TO7 cells; [4]): 1.036
Aak1 6h Log Fold (4TO7 cells; [4]): -1.011
Aaas 6h Log Fold (4TO7 cells; [5]): -0.038
Aacs 6h Log Fold (4TO7 cells; [5]): 0.025
Aagab 6h Log Fold (4TO7 cells; [5]): 0.115
Aak1 6h Log Fold (4TO7 cells; [5]): 0.014
Aamdc 6h Log Fold (4TO7 cells; [5]): -0.075
Aaas 24h Log Fold (4TO7 cells; [6]): -0.054
Aacs 24h Log Fold (4TO7 cells; [6]): 0.127
Aagab 24h Log Fold (4TO7 cells; [6]): 0.138
Aak1 24h Log Fold (4TO7 cells; [6]): 0.00666
Aamdc 24h Log Fold (4TO7 cells; [6]): -0.360
Aaas 48h Log Fold (4TO7 cells; [7]): -1.436
Aacs 48h Log Fold (4TO7 cells; [7]): 1.516
Aaed1 48h Log Fold (4TO7 cells; [7]): -1.677
Aagab 48h Log Fold (4TO7 cells; [7]): 1.592
Aak1 48h Log Fold (4TO7 cells; [7]): 1.091

IC50 (purified HDAC6): 300 nM
IC50 (purified HDAC2): 7.7 µM
SMILES: CCC(CC)(c1ccc(OCC(O)C(C)(C)C)c(C)c1)c1ccc(OCCCCCC(=O)NO)cn1 (stereo not shown) [AM-172]

solubility at 30 min [2]: 1.91 µg/mL (≈ 3.82 µM)
SMILES: CCC(CC)(c1ccc(OCCCCCC(=O)NO)cc1)c1ccc(OCC(O)C(C)(C)C)c(C)c1 (stereo not shown) [DK-367]
tumor growth and metastasis [1]: reduced tumor growth and metastasis
antiproliferative activities [3]: displayed antiproliferative activities

IC50 (purified HDAC6): 500 nM
IC50 (purified HDAC2): 6.5 µM
SMILES: CCC(CC)(c1ccc(OCCCC(=O)NO)cc1)c1ccc(OCC(O)C(C)(C)C)c(C)n1 (stereo not shown) [AM-192]
